Reference: patent US20250195513A1, “DEGRADATION OF IRAK4 BY CONJUGATION OF IRAK4 INHIBITORS WITH E3 LIGASE LIGAND AND METHODS OF USE” (BeiGene, Ltd., priority 2022, published 2025)

Experiments:
IRAK4 [1] = molecular target: T1, IRAK4 (Homo sapiens, UniProt Q9NWZ3); experiment: IRAK4 Degradation Assay with Human Serum (Karpas299, HTRF/TR-FRET); assay type: cell-based; details: Karpas-299 in human serum, 24 hrs treatment; for DC50: read-out: IRAK4 degradtion with human serum assay DC50; for Dmax: read-out: IRAK4 degradtion with human serum assay Dmax (%)
T1 construct: endogenous in cells; host or cells: Karpas299
T1 sequence (Q9NWZ3 1-460): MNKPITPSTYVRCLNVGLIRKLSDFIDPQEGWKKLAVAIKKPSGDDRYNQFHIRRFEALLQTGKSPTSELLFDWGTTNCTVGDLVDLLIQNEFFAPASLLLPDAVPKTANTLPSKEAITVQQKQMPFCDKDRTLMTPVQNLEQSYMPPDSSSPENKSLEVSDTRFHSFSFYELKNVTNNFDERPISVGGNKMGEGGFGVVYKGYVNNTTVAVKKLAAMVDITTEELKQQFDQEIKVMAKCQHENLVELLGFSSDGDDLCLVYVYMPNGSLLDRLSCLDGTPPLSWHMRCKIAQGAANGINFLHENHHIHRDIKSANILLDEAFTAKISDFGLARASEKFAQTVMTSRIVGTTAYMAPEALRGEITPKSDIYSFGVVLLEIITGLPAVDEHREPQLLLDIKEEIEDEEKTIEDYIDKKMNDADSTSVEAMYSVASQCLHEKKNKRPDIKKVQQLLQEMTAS
Method in brief: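 Remaining IRAK4 measured by TR-FRET immunoassay on lysates of Karpas299 cells exposed 24 h to compound dilution series in human serum AB. DC50 derived from a Hill-slope fit of % degradation versus concentration.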

IRAK4 [2] = molecular target: T1, IRAK4; experiment: IRAK4 Degradation Assay (Karpas299, HTRF/TR-FRET); assay type: cell-based; details: Karpas-299 cells; for Dmax: maximum percentage of degradation
Method in brief: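 Compound potency as DC50 (IC50) came from four-parameter fits of percent IRAK4 degradation. IRAK4 was measured by HTRF (665/620 nm) in lysates of Karpas299 cells seeded at 0.2 million per well. Cells had been treated with compound dilutions for 5 or 24 h.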

[3] = 24 h treatment, read-out: IRAK4 in Karpas-299 (24 h) Dmax (%)
[4] = 24 h treatment, read-out: IRAK4 in Karpas-299 (24 h) DC50
[5] = 5 h treatment, read-out: IRAK4 in Karpas-299 (5 h) Dmax (%)
[6] = 5 h treatment, read-out: IRAK4 in Karpas-299 (5 h) DC50

Row | DC50 (IRAK4 [1]) | Dmax (IRAK4 [1]) | Dmax (IRAK4 [2]; [3]) | DC50 (IRAK4 [2]; [4]) | Dmax (IRAK4 [2]; [5]) | DC50 (IRAK4 [2]; [6]) | SMILES
1 | 14 nM | 97% | 98% | 1.4 nM |  |  | C[C@@H]1CN([C@H]2C[C@H](c3cc(F)c([C@H]4CCC(=O)NC4=O)c(F)c3)C2)CCN1[C@H]1CC[C@H](n2cc3cc(NC(=O)c4ccc5cc(C#N)cnn45)c(C(C)(C)O)cc3n2)CC1 [Example 366, 3-cyano-N-(2-((1R,4r)-4-((R)-4-((1R,3R)-3-(4-((R)-2,6-dioxopiperidin-3-yl)-3,5-difluorophenyl)cyclobutyl)-2-methylpiperazin-1-yl)cyclohexyl)-6-(2-hydroxypropan-2-yl)-2H-indazol-5-yl)pyrrolo[1,2-b]pyridazine-7-carboxamide]
2 | 7.4 nM | 94% | 94% | 1.2 nM |  |  | CC(C)(O)c1cc2nn(C34CC(N5CCN(CC6CCN(c7ccc8c(c7)CN(C7CCC(=O)NC7=O)C8=O)CC6)CC5)(C3)C4)cc2cc1NC(=O)c1ccc2cc(C#N)cnn12 (stereo not drawn) [Example 401, 3-cyano-N-(2-(3-(4-((1-(2-(2,6-dioxopiperidin-3-yl)-1-oxoisoindolin-5-yl)piperidin-4-yl)methyl)piperazin-1-yl)bicyclo[1.1.1]pentan-1-yl)-6-(2-hydroxypropan-2-yl)-2H-indazol-5-yl)pyrrolo[1,2-b]pyridazine-7-carboxamide]
3 | 3.8 nM | 97% | 97% | 0.5 nM |  |  | CC(C)(O)c1cc2nn([C@H]3CC[C@H](N4CCN(CC5CN(c6cc(F)c([C@H]7CCC(=O)NC7=O)c(F)c6)C5)C[C@@H]4CO)CC3)cc2cc1NC(=O)c1ccc2cc(C#N)cnn12 [Example 400, 3-cyano-N-(2-((1R,4r)-4-((R)-4-((1-(4-((R)-2,6-dioxopiperidin-3-yl)-3,5-difluorophenyl)azetidin-3-yl)methyl)-2-(hydroxymethyl)piperazin-1-yl)cyclohexyl)-6-(2-hydroxypropan-2-yl)-2H-indazol-5-yl)pyrrolo[1,2-b]pyridazine-7-carboxamide]
4 | 24 nM | 99% | 99% | 2 nM |  |  | CC(C)(O)c1cc2nn([C@H]3CC[C@H](C4CCN(CC5CN(c6cc(F)c([C@H]7CCC(=O)NC7=O)c(F)c6)C5)CC4)CC3)cc2cc1NC(=O)c1ccc2cc(C#N)cnn12 [Example 390, 3-cyano-N-(2-((1r,4r)-4-(1-((1-(4-((R)-2,6-dioxopiperidin-3-yl)-3,5-difluorophenyl)azetidin-3-yl)methyl)piperidin-4-yl)cyclohexyl)-6-(2-hydroxypropan-2-yl)-2H-indazol-5-yl)pyrrolo[1,2-b]pyridazine-7-carboxamide]

More lines, now with the values behind:

Row | SMILES | DC50 (IRAK4 [1]) | Dmax (IRAK4 [1]) | Dmax (IRAK4 [2]; [3]) | DC50 (IRAK4 [2]; [4]) | Dmax (IRAK4 [2]; [5]) | DC50 (IRAK4 [2]; [6])
5 | Cc1cc(C2CCC(=O)NC2=O)c(F)cc1[C@H]1C[C@@H](N2CCN([C@H]3CC[C@H](n4cc5cc(NC(=O)c6ccc7cc(C#N)cnn67)c(C(C)(C)O)cc5n4)CC3)CC2)C1 (stereo partly drawn) [Example 296, 3-cyano-N-(2-((1R,4r)-4-(4-((1s,3S)-3-(4-(2,6-dioxopiperidin-3-yl)-5-fluoro-2-methylphenyl)cyclobutyl)piperazin-1-yl)cyclohexyl)-6-(2-hydroxypropan-2-yl)-2H-indazol-5-yl)pyrrolo[1,2-b]pyridazine-7-carboxamide] | 18 nM | 100% | 97% | 1.8 nM | 91% | 5.4 nM
6 | COc1cc(N2CC(C(=O)N3CCN([C@H]4CC[C@H](n5cc6cc(NC(=O)c7ccc8cc(C#N)cnn78)c(C(C)(C)O)cc6n5)CC4)CC3)C2)cc(F)c1N1CCC(=O)NC1=O [Example 210, 3-cyano-N-(2-((1r,4r)-4-(4-(1-(4-(2,4-dioxotetrahydropyrimidin-1(2H)-yl)-3-fluoro-5-methoxyphenyl)azetidine-3-carbonyl)piperazin-1-yl)cyclohexyl)-6-(2-hydroxypropan-2-yl)-2H-indazol-5-yl)pyrrolo[1,2-b]pyridazine-7-carboxamide] | 7 nM | 98% | 97% | 3.3 nM | 97% | 6.8 nM
7 | Cc1cc(N2CCC(N3CCN([C@H]4CC[C@H](n5cc6cc(NC(=O)c7ccc8cc(C#N)cnn78)c(C(C)(C)O)cc6n5)CC4)CC3)CC2)cc(C)c1[C@H]1CCC(=O)NC1=O [Example 289, 3-cyano-N-(2-((1r,4r)-4-(4-(1-(4-((R)-2,6-dioxopiperidin-3-yl)-3,5-dimethylphenyl)piperidin-4-yl)piperazin-1-yl)cyclohexyl)-6-(2-hydroxypropan-2-yl)-2H-indazol-5-yl)pyrrolo[1,2-b]pyridazine-7-carboxamide] | 19 nM | 98% | 98% | 1.3 nM |  | 
8 | CC(C)(O)c1cc2nn([C@H]3CC[C@H](N4CCN(CCc5cc(F)c([C@H]6CCC(=O)NC6=O)c(F)c5)CC4=O)CC3)cc2cc1NC(=O)c1ccc2cc(C#N)cnn12 [Example 334, 3-cyano-N-(2-((1R,4r)-4-(4-(4-((R)-2,6-dioxopiperidin-3-yl)-3,5-difluorophenethyl)-2-oxopiperazin-1-yl)cyclohexyl)-6-(2-hydroxypropan-2-yl)-2H-indazol-5-yl)pyrrolo[1,2-b]pyridazine-7-carboxamide] | 6.3 nM | 94% | 95% | 0.6 nM |  | 
9 | COc1cc2nn([C@H]3CC[C@H](N4CCN(C(=O)C5CN(c6cc(F)c([C@H]7CCC(=O)NC7=O)c(F)c6)C5)CC4)CC3)cc2cc1NC(=O)c1ccc2cc(C#N)cnn12 [Example 336, 3-cyano-N-(2-((1r,4r)-4-(4-(1-(4-((R)-2,6-dioxopiperidin-3-yl)-3,5-difluorophenyl)azetidine-3-carbonyl)piperazin-1-yl)cyclohexyl)-6-methoxy-2H-indazol-5-yl)pyrrolo[1,2-b]pyridazine-7-carboxamide] | 13 nM | 92% | 100% | 0.2 nM |  | 
10 | CC(C)(O)c1cc2nn([C@H]3CC[C@H](N4CCN(C(=O)C5CN(c6cc(F)c([C@H]7CCC(=O)NC7=O)c(F)c6)C5)CC4=O)CC3)cc2cc1NC(=O)c1ccc2cc(C#N)cnn12 [Example 199, 3-cyano-N-(2-((1r,4r)-4-(4-(1-(4-((R)-2,6-dioxopiperidin-3-yl)-3,5-difluorophenyl)azetidine-3-carbonyl)-2-oxopiperazin-1-yl)cyclohexyl)-6-(2-hydroxypropan-2-yl)-2H-indazol-5-yl)pyrrolo[1,2-b]pyridazine-7-carboxamide] | 22 nM | 95% | 99% | 0.4 nM |  | 
11 | CC(C)(O)c1cc2nn([C@H]3CC[C@H](N4CCN([C@H]5C[C@H](c6ccc(N[C@@H]7CCC(=O)NC7=O)cc6)C5)CC4)CC3)cc2cc1NC(=O)c1ccc2cc(C#N)cnn12 [Example 272, 3-cyano-N-(2-((1R,4r)-4-(4-((1R,3R)-3-(4-(((R)-2,6-dioxopiperidin-3-yl)amino)phenyl)cyclobutyl)piperazin-1-yl)cyclohexyl)-6-(2-hydroxypropan-2-yl)-2H-indazol-5-yl)pyrrolo[1,2-b]pyridazine-7-carboxamide] | 19 nM | 94% | 96% | 6.7 nM |  | 
